Experimental data reported in patent publication EP1018866B1, “COMPOSITIONS AND METHODS FOR THE PRESERVATION OF LIVING TISSUES” (Biostore New Zealand Limited, priority 1996, dated 1997).

Tested on: mouse embryos
Experiment: Storage of mouse embryos in Solution 70/30 at 4 °C with or without sodium butyrate pretreatment
Type: cell-based
Description: Mouse embryos were incubated with either sodium butyrate or a Class II solute at either room temperature, 30 °C or 4 °C prior to storage in Solution 70/30 for up to five days at 4 °C. […] Sodium butyrate replaced sodium chloride at the same concentration in PBS.

With CCCC(=O)[O-].[Na+] [sodium butyrate] the embryos hatched (pretreatment with higher concentrations of sodium butyrate, 5 days of storage in Solution 70/30) was “up to 70%” and the embryos to hatch (pretreatment with sodium butyrate, three days of storage in Solution 70/30 at 4 °C) was “up to 80%”.
